The target of this assay is NL4-3 protease (Human immunodeficiency virus type 1 group M subtype B, UniProt P12497). The settings on record: reference clone reconstructed with NL4-3 protease; HeLa cells; drug 0.1 μM; supernatant 48 hours after transfection.

Experimental: Positive colonies were grown in 5 mL LB medium, the plasmids extracted, and HeLa cells grown to 50% confluence on an 8-well plate (Costar), transfected by lipofectin (Bethesda Research Laboratories) in triplicate using pΔproΔRTΔenv (0.5 μg) containing the exogenous HIV-1 PR sequences. […] The degree of inhibition of viral expression was documented by the ratio between the levels of p24Ag detected in the presence and in the absence of the anti-viral compound (R=p24Ag^drug,/p24Ag^medium). The percent Sensitivity Index (SI%=100×R^reference/R^sample) was introduced to normalise differences due to cell related variables among different experiments. Proteases displaying SI% values greater than 80% were considered fully sensitive; partially sensitive (intermediate phenotype) between 80 and 60%; and resistant when lower than 60%.
The HIV-1 PR coding sequences amplified from the 13 culture supernatants or directly from the 6 plasma samples were cloned into the pΔproΔRTΔenv nonreplicative backbone, and the resulting plasmids were transfected into semiconfluent HeLa cells. After 48 hours of incubation the supernatants were assayed for HIV-1 p24Ag concentration.
This index was determined by normalising the R value of each clinical sample (R^sample) to that of the NL4-3 reference strain (R^reference) evaluated in parallel experiment, according to the function SI%=100×R^reference/R^sample.

As to `CC(C)c1nc(CN(C)C(=O)N[C@H](C(=O)N[C@@H](Cc2ccccc2)C[C@H](O)[C@H](Cc2ccccc2)NC(=O)OCc2cncs2)C(C)C)cs1` [RTV, ritonavir], the “production of HIV-1 p24Ag by the reference clone in the presence of drug, compared with PI-free medium” value was “strongly inhibited”.

Values taken from patent US20030175690A1 (priority 1999, published 2003).
